Legend:
BV-2 = test: Anti-neuroinflammatory activity against LPS-stimulated C57BL/6 mouse BV-2 cells assessed as inhibition of NO release at 30 uM preincubated with compound for 4 hrs followed by LPS addition and measured after 24 hrs by Griess reagent based assay relative to control; assay type: functional; settings: C57BL/6, BV-2, time 28 hrs
[1] = Cytotoxicity against C57BL/6 mouse BV-2 cells assessed as survival rate at 30 uM incubated for 24 hrs by MTT assay relative to control; assay type: toxicity, cell-based; settings: read-out: Survival

| Compound | inhibition at 30 µM (BV-2) [%] | viability at 24 h, 30 µM [1] [%] |
| --- | --- | --- |
| CCN1C[C@]2(OC(=O)c3ccccc3NC(=O)CN(C)C)CC[C@H](OC)[C@]34C1[C@@H](C[C@H]23)[C@@]1(O)C[C@H](OC)[C@H]2C[C@@H]4[C@]1(O)[C@H]2OC | 20.2 | 94.5 |
| CCCc1ccc(S(=O)(=O)C(=O)Nc2ccccc2C(=O)O[C@@]23CC[C@H](OC)[C@]45C([C@@H](C[C@H]24)[C@@]2(O)C[C@H](OC)[C@H]4C[C@@H]5[C@]2(O)[C@H]4OC)N(CC)C3)cc1 | 43.4 | 92.3 |
| CCN1C[C@]2(OC(=O)c3ccccc3NC(=O)S(=O)(=O)c3cccc(OC)c3)CC[C@H](OC)[C@]34C1[C@@H](C[C@H]23)[C@@]1(O)C[C@H](OC)[C@H]2C[C@@H]4[C@]1(O)[C@H]2OC | 23.5 | 102 |
| CCN1C[C@]2(OC(=O)c3ccccc3NC(=O)C3CCCCC3)CC[C@H](OC)[C@]34C1[C@@H](C[C@H]23)[C@@]1(O)C[C@H](OC)[C@H]2C[C@@H]4[C@]1(O)[C@H]2OC | 44.5 | 105 |
| CCN1C[C@]2(OC(=O)c3ccccc3NC(=O)S(=O)(=O)c3cccs3)CC[C@H](OC)[C@]34C1[C@@H](C[C@H]23)[C@@]1(O)C[C@H](OC)[C@H]2C[C@@H]4[C@]1(O)[C@H]2OC | 55.9 | 105 |
| CCN1C[C@]2(OC(=O)c3ccccc3NC(=O)S(=O)(=O)c3ccc(OC)cc3)CC[C@H](OC)[C@]34C1[C@@H](C[C@H]23)[C@@]1(O)C[C@H](OC)[C@H]2C[C@@H]4[C@]1(O)[C@H]2OC | 10.8 | 92.4 |
| CCN1C[C@]2(OC(=O)c3ccccc3NC(=O)S(=O)(=O)c3ccc4ccccc4c3)CC[C@H](OC)[C@]34C1[C@@H](C[C@H]23)[C@@]1(O)C[C@H](OC)[C@H]2C[C@@H]4[C@]1(O)[C@H]2OC | 53.1 | 100 |
| CCN1C[C@]2(OC(=O)c3ccccc3NC(=O)S(=O)(=O)c3ccc(Cl)cc3F)CC[C@H](OC)[C@]34C1[C@@H](C[C@H]23)[C@@]1(O)C[C@H](OC)[C@H]2C[C@@H]4[C@]1(O)[C@H]2OC | 14.9 | 99.8 |
| CCC(=O)Nc1ccccc1C(=O)O[C@@]12CC[C@H](OC)[C@]34C([C@@H](C[C@H]13)[C@@]1(O)C[C@H](OC)[C@H]3C[C@@H]4[C@]1(O)[C@H]3OC)N(CC)C2 | 19.1 | 96.1 |
| CCN1C[C@]2(OC(=O)c3ccccc3NC(=O)c3ccc(OC)cc3)CC[C@H](OC)[C@]34C1[C@@H](C[C@H]23)[C@@]1(O)C[C@H](OC)[C@H]2C[C@@H]4[C@]1(O)[C@H]2OC | 45.2 | 100 |
| CCN1C[C@]2(OC(=O)c3ccccc3NC(=O)S(=O)(=O)c3ccc(F)c(Cl)c3)CC[C@H](OC)[C@]34C1[C@@H](C[C@H]23)[C@@]1(O)C[C@H](OC)[C@H]2C[C@@H]4[C@]1(O)[C@H]2OC | 26.2 | 93.6 |
| CCN1C[C@]2(OC(=O)c3ccccc3NC(=O)S(=O)(=O)c3ccccc3Br)CC[C@H](OC)[C@]34C1[C@@H](C[C@H]23)[C@@]1(O)C[C@H](OC)[C@H]2C[C@@H]4[C@]1(O)[C@H]2OC | 7.3 | 92.6 |
| CCN1C[C@]2(OC(=O)c3ccccc3NC(=O)S(=O)(=O)c3cc(Cl)ccc3OC)CC[C@H](OC)[C@]34C1[C@@H](C[C@H]23)[C@@]1(O)C[C@H](OC)[C@H]2C[C@@H]4[C@]1(O)[C@H]2OC | 6 | 94.9 |
| CCN1C[C@]2(OC(=O)c3ccccc3NC(=O)C3CCCC3)CC[C@H](OC)[C@]34C1[C@@H](C[C@H]23)[C@@]1(O)C[C@H](OC)[C@H]2C[C@@H]4[C@]1(O)[C@H]2OC | 37.9 | 107 |
| CCN1C[C@]2(COC)CC[C@H](OC)[C@]34C1[C@@H](C[C@H]23)[C@@]1(O)C[C@H](OC)[C@H]2C[C@@H]4[C@]1(O)[C@H]2OC(=O)c1ccccc1N | 19.4 | 101 |
| CCN1C[C@]2(OC(=O)c3ccccc3NC(=O)c3ccc(Br)cc3)CC[C@H](OC)[C@]34C1[C@@H](C[C@H]23)[C@@]1(O)C[C@H](OC)[C@H]2C[C@@H]4[C@]1(O)[C@H]2OC | 21.3 | 102 |
| CCN1C[C@]2(OC(=O)c3ccccc3NC(=O)S(=O)(=O)c3ccccc3[N+](=O)[O-])CC[C@H](OC)[C@]34C1[C@@H](C[C@H]23)[C@@]1(O)C[C@H](OC)[C@H]2C[C@@H]4[C@]1(O)[C@H]2OC | 20.5 | 104 |
| CCN1C[C@]2(OC(=O)c3ccccc3NC(=O)c3ccccc3OC)CC[C@H](OC)[C@]34C1[C@@H](C[C@H]23)[C@@]1(O)C[C@H](OC)[C@H]2C[C@@H]4[C@]1(O)[C@H]2OC | 34.2 | 97 |
| CCN1C[C@]2(COC(=O)c3ccccc3NS(=O)(=O)c3ccc(Br)s3)CC[C@H](OC)[C@]34C1[C@@H](C[C@H]23)[C@@]1(O)C[C@H](OC)[C@H]2C[C@@H]4[C@]1(O)[C@H]2OC | 34.7 | 97.8 |

| Compound | inhibition at 30 µM (BV-2) [%] | viability at 24 h, 30 µM [1] [%] |
| --- | --- | --- |
| CCN1C[C@]2(OC(=O)c3ccccc3NC(=O)c3ccccc3N(C)C)CC[C@H](OC)[C@]34C1[C@@H](C[C@H]23)[C@@]1(O)C[C@H](OC)[C@H]2C[C@@H]4[C@]1(O)[C@H]2OC | 34.7 | 101 |
| CCN1C[C@]2(OC(=O)c3ccccc3NC(=O)S(=O)(=O)c3ccc(C#N)cc3Cl)CC[C@H](OC)[C@]34C1[C@@H](C[C@H]23)[C@@]1(O)C[C@H](OC)[C@H]2C[C@@H]4[C@]1(O)[C@H]2OC | 12.5 | 99.4 |
| CCN1C[C@]2(OC(=O)c3ccccc3NC(=O)S(=O)(=O)c3ccccn3)CC[C@H](OC)[C@]34C1[C@@H](C[C@H]23)[C@@]1(O)C[C@H](OC)[C@H]2C[C@@H]4[C@]1(O)[C@H]2OC | 29.9 | 100 |
| CCN1C[C@]2(OC(=O)c3ccccc3NC(=O)S(=O)(=O)c3ccc(OC)c(OC)c3)CC[C@H](OC)[C@]34C1[C@@H](C[C@H]23)[C@@]1(O)C[C@H](OC)[C@H]2C[C@@H]4[C@]1(O)[C@H]2OC | 19.4 | 105 |
| CCN1C[C@]2(O)CC[C@H](OC)[C@]34C1[C@@H](C[C@H]23)[C@@]1(O)C[C@H](OC)[C@H]2C[C@@H]4[C@]1(O)[C@H]2OC | 8.8 | 97.4 |
| CCN1C[C@]2(OC(=O)c3ccccc3NC(=O)c3ccc(C#N)cc3)CC[C@H](OC)[C@]34C1[C@@H](C[C@H]23)[C@@]1(O)C[C@H](OC)[C@H]2C[C@@H]4[C@]1(O)[C@H]2OC | 6.6 | 99.5 |
| CCN1C[C@]2(OC(=O)c3ccccc3NC(=O)c3ccccc3I)CC[C@H](OC)[C@]34C1[C@@H](C[C@H]23)[C@@]1(O)C[C@H](OC)[C@H]2C[C@@H]4[C@]1(O)[C@H]2OC | 13.1 | 109 |
| CCN1C[C@]2(OC(=O)c3ccccc3NC(=O)c3ccccc3F)CC[C@H](OC)[C@]34C1[C@@H](C[C@H]23)[C@@]1(O)C[C@H](OC)[C@H]2C[C@@H]4[C@]1(O)[C@H]2OC | 17.3 | 105 |
| CCN1C[C@]2(OC(=O)c3ccccc3NC(=O)S(=O)(=O)c3ccc(OCc4ccccc4)cc3)CC[C@H](OC)[C@]34C1[C@@H](C[C@H]23)[C@@]1(O)C[C@H](OC)[C@H]2C[C@@H]4[C@]1(O)[C@H]2OC | 21.3 | 102 |
| CCCC(C)C(=O)Nc1ccccc1C(=O)O[C@@]12CC[C@H](OC)[C@]34C([C@@H](C[C@H]13)[C@@]1(O)C[C@H](OC)[C@H]3C[C@@H]4[C@]1(O)[C@H]3OC)N(CC)C2 (some centres undefined) | 57.8 | 108 |
| CCCCOC(=O)c1ccccc1NC(=O)c1ccc(CC)cc1 | 30.4 | 103 |
| CCN1C[C@]2(OC(=O)c3ccccc3NC(=O)c3ccc(C)cc3C)CC[C@H](OC)[C@]34C1[C@@H](C[C@H]23)[C@@]1(O)C[C@H](OC)[C@H]2C[C@@H]4[C@]1(O)[C@H]2OC | 16 | 104 |
| O=C(O)c1ccccc1NS(=O)(=O)c1cccc(F)c1 | 10.8 | 100 |
| COC(=O)c1ccccc1NS(=O)(=O)c1cccc(F)c1 | 38.5 | 106 |
| CCN1C[C@]2(OC(=O)c3ccccc3NC(C)=O)CC[C@H](OC)[C@]34C1[C@@H](C[C@H]23)[C@@]1(O)C[C@H](OC)[C@H]2C[C@@H]4[C@]1(O)[C@H]2OC | 25.1 | 98.2 |
| CCN1C[C@]2(COC(=O)c3ccccc3N)CC[C@H](OC)[C@]34C1[C@@H](C[C@H]23)[C@@]1(O)C[C@H](OC)[C@H]2C[C@@H]4[C@]1(O)[C@H]2OC | 22 | 91.9 |
| CCc1ccc(C(=O)Nc2ccccc2C(=O)OC[C@@]23CC[C@H](OC)[C@]45C([C@@H](C[C@H]24)[C@@]2(O)C[C@H](OC)[C@H]4C[C@@H]5[C@]2(O)[C@H]4O)N(CC)C3)cc1 | 15.5 | 104 |
| CCN1C[C@]2(OC(=O)c3ccccc3NC(=O)c3ccc(Cl)cc3)CC[C@H](OC)[C@]34C1[C@@H](C[C@H]23)[C@@]1(O)C[C@H](OC)[C@H]2C[C@@H]4[C@]1(O)[C@H]2OC | 32.3 | 105 |
